Experiment: Inhibition of PI3Kdelta in Balb/c mouse splenocytes-derived B cells assessed as reduction in anti-IgM antibody-stimulated B cell proliferation after 2 days alamar blue assay

SMILES | IC50
COc1ncc(-c2cc(OC3CN(C(=O)C4CCOCC4)C3)c3cnn(C)c3n2)cc1NS(C)(=O)=O | 20 nM
COc1ncc(-c2cc(O[C@@H]3CCN(C(=O)C4CCOCC4)C3)c3cnn(C)c3n2)cc1NS(C)(=O)=O | 2.6 nM
COc1ncc(-c2cc(OC[C@@H]3CCCN(Cc4cn(C)nc4C)C3)c3cnn(C)c3n2)cc1NS(C)(=O)=O | 4.8 nM
COc1ncc(-c2cc(OC[C@@H]3CCCN(C(=O)CC4CCOC4)C3)c3cnn(C)c3n2)cc1NS(C)(=O)=O (some centres not stated) | 2.9 nM
COc1ncc(-c2cc(OC[C@@H]3CCCN(C(=O)C4CCN(C(C)=O)CC4)C3)c3cnn(C)c3n2)cc1NS(C)(=O)=O | 4.3 nM
COc1ncc(-c2cc(O[C@@H]3CCN(Cc4c(C)nn(C)c4C)C3)c3cnn(C)c3n2)cc1NS(C)(=O)=O | 2.1 nM
COc1ncc(-c2cc(OC[C@H]3CCCN(C(=O)C4CCOCC4)C3)c3cnn(C)c3n2)cc1NS(C)(=O)=O | 7.8 nM

Compounds with a lower IC50, results first:

IC50 | SMILES
1.5 nM | COc1ncc(-c2cc(OC[C@@H]3CCCN(CC4(C)COC4)C3)c3cnn(C)c3n2)cc1NS(C)(=O)=O
1.5 nM | COc1ncc(-c2cc(OC[C@@H]3CCCN(Cc4c(C)nn(C)c4C)C3)c3cnn(C)c3n2)cc1NS(C)(=O)=O
1.4 nM | COc1ncc(-c2cc(OC[C@@H]3CCCN(C(=O)C4CCOCC4)C3)c3cnn(C)c3n2)cc1NS(C)(=O)=O
0.41 nM | COc1ncc(-c2cc(OC[C@@H]3CCCN(CCC4CCOCC4)C3)c3cnn(C)c3n2)cc1NS(C)(=O)=O
0.29 nM | COc1ncc(-c2cc(OC[C@@H]3CCCN(CC4CCOCC4)C3)c3cnn(C)c3n2)cc1NS(C)(=O)=O
